Laboratory results published in BindingDB's records for doi:10.1016/j.bmcl.2020.126986 (Abbvie, 2020).

Legend:
[1] = Inhibition of NS5B polymerase in HCV genotype 1b Con1 infected in human HuH7 replicon cells assessed as inhibition of viral replication after 3 days by luciferase reporter gene assay
[2] = Inhibition of NS5B polymerase in HCV genotype 1a H77 infected in human HuH7 replicon cells assessed as inhibition of viral replication after 3 days by luciferase reporter gene assay

| Compound | EC50 [1] [nM] | EC50 [2] [nM] |
| --- | --- | --- |
| CC(C)OC(=O)[C@H](C)N[P@](=O)(OC[C@H]1O[C@@H](n2ccc(=O)[nH]c2=O)[C@](Cl)(Br)[C@@H]1O)Oc1ccccc1 | 147 | 114 |
| CC(C)OC(=O)[C@H](C)N[P@@](=O)(OC[C@H]1O[C@@H](n2ccc(=O)[nH]c2=O)[C@](Cl)(Br)[C@@H]1O)Oc1ccccc1 | 515 | 415 |
| CC(C)OC(=O)[C@H](C)N[P@](=O)(OC[C@H]1O[C@@H](n2ccc(=O)[nH]c2=O)[C@](Cl)(Br)[C@@H]1OC(=O)[C@@H](N)C(C)C)Oc1ccccc1 | 167 | 156 |
| CC(C)OC(=O)[C@H](C)N[P@](=O)(OC[C@H]1O[C@@H](n2ccc(=O)[nH]c2=O)[C@](Cl)(Br)[C@@H]1O)Oc1cccc2ccccc12 | 139 | 106 |
| CC(C)OC(=O)[C@H](C)N[P@](=O)(OC[C@H]1O[C@@H](n2ccc(=O)[nH]c2=O)[C@](Cl)(Br)[C@@H]1OC(=O)[C@@H](N)C(C)C)Oc1cccc2ccccc12 | 99 | 94 |
| COc1cccc(O[P@](=O)(N[C@@H](C)C(=O)OC(C)C)OC[C@H]2O[C@@H](n3ccc(=O)[nH]c3=O)[C@](Cl)(Br)[C@@H]2O)c1 | 127 | 98 |
| CCOC(=O)[C@H](C)N[P@](=O)(OC[C@H]1O[C@@H](n2ccc(=O)[nH]c2=O)[C@](Cl)(Br)[C@@H]1O)Oc1ccccc1 | 301 | 298 |
| CCOC(=O)[C@H](C)N[P@@](=O)(OC[C@H]1O[C@@H](n2ccc(=O)[nH]c2=O)[C@](Cl)(Br)[C@@H]1O)Oc1ccccc1 | 1190 | 1210 |
| COCC(C)OC(=O)[C@H](C)NP(=O)(OC[C@H]1O[C@@H](n2ccc(=O)[nH]c2=O)[C@](Cl)(Br)[C@@H]1O)Oc1ccccc1 (stereo partly drawn) | 387 | 414 |
| CC(C)C(=O)OC[C@H](C)NP(=O)(OC[C@H]1O[C@@H](n2ccc(=O)[nH]c2=O)[C@](Cl)(Br)[C@@H]1O)Oc1ccccc1 (stereo partly drawn) | 455 | 317 |
| COCC(C)C(=O)OC[C@H](C)NP(=O)(OC[C@H]1O[C@@H](n2ccc(=O)[nH]c2=O)[C@](Cl)(Br)[C@@H]1O)Oc1ccccc1 (stereo partly drawn) | 522 | 592 |
| COCC(=O)OC[C@H](C)NP(=O)(OC[C@H]1O[C@@H](n2ccc(=O)[nH]c2=O)[C@](Cl)(Br)[C@@H]1O)Oc1ccccc1 (stereo partly drawn) | 3040 | 2500 |
| CC(C)OC(=O)C(C)(C)NP(=O)(OC[C@H]1O[C@@H](n2ccc(=O)[nH]c2=O)[C@](Cl)(Br)[C@@H]1O)Oc1ccccc1 (stereo partly drawn) | 1380 | 1090 |
| CCOC(=O)C(C)(C)NP(=O)(OC[C@H]1O[C@@H](n2ccc(=O)[nH]c2=O)[C@](Cl)(Br)[C@@H]1O)Oc1ccccc1 (stereo partly drawn) | 1170 | 960 |
